Measurements taken from the NIST ThermoML archive (doi:10.1021/je060271a).
Values joined by “and” are separate entries in the source; they are usually repeats but may differ in a detail not shown here. Identical values can stand only once.

Settings: Liquid, Vibrating tube method

CCCCCCC(=O)OCC(COC(=O)CCCCCC)(COC(=O)CCCCCC)COC(=O)CCCCCC [pentaerythritol tetraheptanoate]
Settings | mass density
283.15 K, 2785.2 kPa | 987.5 kg/m3
283.15 K, 4763 kPa | 988.5 kg/m3
283.15 K, 4768.7 kPa | 988.7 kg/m3
283.15 K, 5143.5 kPa | 988.8 kg/m3
283.15 K, 5150.3 kPa | 988.9 kg/m3
283.15 K, 5157.6 kPa | 988.7 kg/m3
283.15 K, 5164.1 kPa | 988.8 kg/m3
283.15 K, 5170.9 kPa | 988.9 kg/m3
283.15 K, 5178.5 kPa | 988.9 kg/m3
283.15 K, 5185.2 kPa | 988.8 kg/m3
283.15 K, 5558.2 kPa | 989.1 kg/m3
283.15 K, 5573.4 kPa | 989.1 kg/m3
283.15 K, 5748.5 kPa | 989.3 kg/m3
283.15 K, 5758 kPa | 989.2 kg/m3
283.15 K, 5766.1 kPa | 989.3 kg/m3
283.15 K, 9627.4 kPa | 991.5 kg/m3
283.15 K, 9754 kPa | 991.6 kg/m3
283.15 K, 9827.4 kPa | 991.6 kg/m3
283.15 K, 15376 kPa | 994.5 kg/m3
283.15 K, 15402 kPa | 994.5 kg/m3
283.15 K, 15424 kPa | 994.5 kg/m3
283.15 K, 15447 kPa | 994.5 kg/m3
283.15 K, 15473 kPa | 994.5 kg/m3
283.15 K, 15496 kPa | 994.5 kg/m3
283.15 K, 15518 kPa | 994.4 kg/m3
283.15 K, 15545 kPa | 994.6 kg/m3
283.15 K, 16561 kPa | 995.2 kg/m3
283.15 K, 16643 kPa | 995.1 kg/m3
283.15 K, 16700 kPa | 995.2 kg/m3
283.15 K, 17302 kPa | 995.5 kg/m3
283.15 K, 17330 kPa | 995.5 kg/m3
283.15 K, 17392 kPa | 995.5 kg/m3
283.15 K, 17420 kPa | 995.6 kg/m3
283.15 K, 19724 kPa | 996.7 kg/m3
283.15 K, 24690 kPa | 999.4 kg/m3
283.15 K, 24805 kPa | 999.3 kg/m3
283.15 K, 25965 kPa | 999.9 kg/m3
283.15 K, 26012 kPa | 1000.1 kg/m3
283.15 K, 26052 kPa | 1000.1 kg/m3
283.15 K, 26093 kPa | 1000.1 kg/m3
283.15 K, 26133 kPa | 1000.1 kg/m3
283.15 K, 26183 kPa | 1000.1 kg/m3
283.15 K, 26224 kPa | 1000.1 kg/m3
283.15 K, 26317 kPa | 1000.1 kg/m3
283.15 K, 26361 kPa | 1000.1 kg/m3
283.15 K, 26458 kPa | 1000.2 kg/m3
283.15 K, 26749 kPa | 1000.4 kg/m3
283.15 K, 26807 kPa | 1000.4 kg/m3
283.15 K, 26833 kPa | 1000.4 kg/m3
283.15 K, 26860 kPa | 1000.5 kg/m3
283.15 K, 26892 kPa | 1000.5 kg/m3
283.15 K, 26918 kPa | 1000.5 kg/m3
283.15 K, 26978 kPa | 1000.5 kg/m3
283.15 K, 27117 kPa | 1000.7 kg/m3
283.15 K, 27150 kPa | 1000.5 kg/m3
283.15 K, 27176 kPa | 1000.7 kg/m3
283.15 K, 27209 kPa | 1000.6 kg/m3
283.15 K, 27237 kPa | 1000.6 kg/m3
283.15 K, 27264 kPa | 1000.6 kg/m3
283.15 K, 27324 kPa | 1000.7 kg/m3
283.15 K, 27352 kPa | 1000.7 kg/m3
283.15 K, 27599 kPa | 1000.8 kg/m3
283.15 K, 27618 kPa | 1000.8 kg/m3
283.15 K, 27642 kPa | 1000.9 kg/m3
283.15 K, 27661 kPa | 1000.8 kg/m3
283.15 K, 27681 kPa | 1000.9 kg/m3
283.15 K, 27896 kPa | 1001.1 kg/m3
283.15 K, 27916 kPa | 1001.1 kg/m3
283.15 K, 27936 kPa | 1000.9 kg/m3
283.15 K, 27956 kPa | 1001 kg/m3
283.15 K, 28022 kPa | 1001 kg/m3
283.15 K, 30230 kPa | 1002.1 kg/m3
283.15 K, 33971 kPa | 1003.9 kg/m3
283.15 K, 34009 kPa | 1004.1 kg/m3
283.15 K, 34041 kPa | 1003.9 kg/m3
283.15 K, 34067 kPa | 1004 kg/m3
283.15 K, 34100 kPa | 1004.1 kg/m3
283.15 K, 34146 kPa | 1004.3 kg/m3
283.15 K, 34179 kPa | 1004 kg/m3
283.15 K, 34214 kPa | 1004.2 kg/m3
283.15 K, 34255 kPa | 1004.1 kg/m3
283.15 K, 34291 kPa | 1004.1 kg/m3
283.15 K, 34334 kPa | 1004.2 kg/m3 and 1004.1 kg/m3
283.15 K, 34346 kPa | 1004.1 kg/m3
283.15 K, 34372 kPa | 1004.2 kg/m3
283.15 K, 34412 kPa | 1004.3 kg/m3
283.15 K, 34450 kPa | 1004.2 kg/m3
283.15 K, 34481 kPa | 1004.2 kg/m3
283.15 K, 34492 kPa | 1004.2 kg/m3
283.15 K, 34503 kPa | 1004.4 kg/m3
283.15 K, 34516 kPa | 1004.2 kg/m3
283.15 K, 34528 kPa | 1004.3 kg/m3
283.15 K, 34542 kPa | 1004.4 kg/m3
283.15 K, 34553 kPa | 1004.4 kg/m3
283.15 K, 34565 kPa | 1004.4 kg/m3
283.15 K, 34574 kPa | 1004.3 kg/m3
283.15 K, 34579 kPa | 1004.3 kg/m3
283.15 K, 34594 kPa | 1004.5 kg/m3
283.15 K, 34601 kPa | 1004.3 kg/m3
283.15 K, 34603 kPa | 1004.2 kg/m3
283.15 K, 34606 kPa | 1004.3 kg/m3
303.14 K, 99.6 kPa | 970.8 kg/m3
303.14 K, 99.8 kPa | 970.7 kg/m3 and 970.8 kg/m3 and 970.9 kg/m3
303.14 K, 99.9 kPa | 970.8 kg/m3 and 970.9 kg/m3 and 970.7 kg/m3
303.14 K, 100.1 kPa | 970.7 kg/m3 and 970.6 kg/m3
303.14 K, 100.3 kPa | 970.7 kg/m3
303.14 K, 100.6 kPa | 970.8 kg/m3
303.14 K, 101.7 kPa | 970.7 kg/m3
303.14 K, 103.8 kPa | 970.7 kg/m3
303.14 K, 107.4 kPa | 970.8 kg/m3
303.14 K, 118.5 kPa | 970.8 kg/m3
303.14 K, 136.8 kPa | 970.7 kg/m3
